What was measured:
[1] = system: PC12-HS cells; assay: Evaluation method A: neurocyte growth acceleration activity (Alamar blue); assay type: cell-based, rat; settings: for Cell proliferation rate (%): negative control = 100%; for neurocyte growth acceleration activity (in words): 40, 200 and 1,000 nM, comment on Table 2; for Action on PC12-HS growth acceleration (50 ng/ml): 3 days culture, class of cell proliferation rate vs negative control = 100%
Description: (§1) As a model of the nerve cell, the NGF (nerve growth factor) highly sensitive strain of PC12 cell derived from the rat adrenal pheochromocytoma (hereinafter referred to as “PC12-HS cell”; JCRB cell bank, National Research and Development Institute of Health and Nutrition), which has been widely used as a suitable model for research on human neurodegenerative disease, was used. As the test compound, […] of trimethine cyanine dye compounds; NK-5 (Chemical formula 2), NK-36 (Chemical formula 3), NK-44 (Chemical formula 5) and dye compounds represented by Chemical formulae 12 to 18, and NK-6 (Chemical formula 7), which is a monomethine cyanine dye, were selected. In addition, two kinds of ethylene cross-linked dyes (Chemical formulae 19 and 20), 15 kinds of monomethine cyanine dyes (Chemical formulae 21 to 35), and seven kinds of trimethine cyanine dyes (Chemical formulae 36 to 42), which were expected to have a good neurocyte growth acceleration activity and/or neurite-outgrowth promoting activity in the screening disclosed in Patent literature 6, were also re-evaluated for comparison. The Chemical formulae 12 to 42 are shown below.
(§2) The cyanine dye compounds subjected to the test (purity 97% by mass or more, synthesized by Hayashibara Co., Ltd., Okayama, Japan) were individually dissolved in DMSO (product number “D8418”, commercialized by SIGMA Corporation) at a concentration of 5 mg/ml, and the solutions were then filtered through DMSO-resistant membrane (“Millex-LGS LLG025SS”, commercialized by Millipore Corporation) and stored at 25° C. in a dark condition. At the time of use, they were further diluted with Dulbecco's Medium (hereinafter, abbreviated as “D-MEM medium”, commercialized by Nissui Pharmaceutical Co., Ltd.) supplemented by 10% by volume of fetal bovine serum (FBS), and subjected to the test.
PC12-HS cells were subjected to tests after frozen stock cultured cells were thawed and cultured with a D-MEM medium supplemented with 10% by volume of FBS (Hereinafter, when the term “culture” is simply used, it means that the cells are statically cultured in an incubator controlled at 37° C. under 5% by volume of CO2 conditions). Cells used in the test were collected using 0.25% by weight of trypsin solution, then diluted with a D-MEM medium supplemented with 10% by volume of FBS (hereinafter referred to as “culture medium”), seeded into collagen-coated 96-well plates (commercialized by Falcon, Tokyo, Japan, “Microtest Plate, Cell Culture, Flat Bottom”) to obtain 5×10^3 cells/100 μl/well, and cultured for 24 hours (hereinafter referred to as “pre-culture”). Then, the above test samples were diluted with a culture medium, and 100 μl of diluted solution of the test compounds were added to each well so that the final concentration of the test compounds in the wells became 50 ng/ml, and the cells were cultured for another three days. On day 3, the cultures supernatant was removed from each well, 200 μl of culture medium containing 10% by volume of Alamar blue reagents (commercialized by Trek Diagnostic Systems Inc., Ohio, USA) were added to each well, and the cells were cultured for 6 hours. After culturing for 6 hours, the cells were measured for fluorescent intensity at a wavelength of 544-590 nm by “FlexStation 3”, a product name of a fluorescent plate reader (commercialized by Japan Molecular Devices Corporation, Tokyo, Japan). […] Measurements were performed for each test compound in triplicate, and the mean values were shown.
The method was based on Experiment 1-1, except the concentrations of the test compounds were set to three doses of 40 nM, 200 nM and 1,000 nM for evaluation method A (neurocyte growth accelerating effect), and two doses of 200 nM and 1,000 nM for evaluation method B (neurite outgrowth promoting effect). […]

[2] = system: PC12-HS cells; assay: Evaluation method B: neurite-outgrowth promoting activity in the presence of NGF; assay type: cell-based, rat; settings: for Neurite-outgrowth rate (%) / Action on PC12-HS neurite-outgrowth promotion (500 ng/ml): NGF 10 ng/ml; for Action on PC12-HS neurite-outgrowth promotion (500 ng/ml): 3 days, class of neurite-outgrowth rate; for neurite-outgrowth promoting activity (in words): 200 and 1,000 nM, comment on Table 2
Description: as §1, §2
As in the case of evaluation of neurocyte growth accelerating activity (Evaluation method A), 50 μl/well of each test compound solution, prepared by diluting with the culture medium to give a final concentration of 500 ng/ml, and the culture medium containing 20 ng/ml of mouse NGF (mouse derived, final concentration 10 ng/ml, commercialized by Chemicon International, Inc., CA, USA) (50 μl/well) were added to the precultured PC12-HS cells in each well, and then cultured for three days. Culture medium was removed on day 3 of culture, and cells were fixed by adding 100 μl/well of 10% by volume of glutaraldehyde and standing for 20 minutes at room temperature. As a negative control, PC12-HS cells, cultured for three days with culture medium, were fixed with glutaraldehyde similarly as above. Fixed cells were observed under a microscope to assess the neurite-outgrowth. The neurite-outgrowth rate (%) was determined by observing the cells using a microscope by adjusting the magnitude to give about 100 cells in one visual field, counting the number of cells having neurites twice or more in length of the cell body (major axis), dividing by the total number of cells in the same visual field, and multiplying by 100. Measurements were carried out at three points for each test compound. […] In this experiment, the neurite-outgrowth rate was 5% or less when NGF was added (final concentration 10 ng/ml) without the addition of the test compound.
The method was based on Experiment 1-1, except the concentrations of the test compounds were set to three doses of 40 nM, 200 nM and 1,000 nM for evaluation method A (neurocyte growth accelerating effect), and two doses of 200 nM and 1,000 nM for evaluation method B (neurite outgrowth promoting effect). Measurements were performed in triplicate for each concentration of each test compound in both evaluation methods A and B. The result of the evaluation method A was expressed as a cell proliferation rate (%) by determined a relative percentage (%) when the value of the negative control to which the test compound was not added, was regarded as 100%. […]

SMILES: CC1(C)C(=CC=CC2=[N+](CCO)c3ccccc3C2(C)C)N(CCO)c2ccccc21.[Br-] [NK-1883]
- Cell proliferation rate (%) ([1]; 1.000 nM): 87.5%
- Cell proliferation rate (%) ([1]; 40 nM): 104.8%
- Cell proliferation rate (%) ([1]; 200 nM): 105.1%
- neurocyte growth acceleration activity (in words) [1]: almost no growth acceleration activity
- Neurite-outgrowth rate (%) ([2]; 1.000 nM): 13.3%
- Neurite-outgrowth rate (%) ([2]; 200 nM): 13.3%

SMILES: CC(=Cc1oc2ccccc2[n+]1C)C=C1Oc2ccccc2N1C.[I-] [NK-1300]
- Action on PC12-HS neurite-outgrowth promotion (500 ng/ml) [2]: ◯ (When the mean neurite-outgrowth rate was 25 to 44%, it was judged to be equivalent to the positive control NK-4 (“circle”))

SMILES: CCCCN1C(C)=CSC1=Cc1scc(C)[n+]1CCCC.[I-] [NK-399]
- Action on PC12-HS neurite-outgrowth promotion (500 ng/ml) [2]: ◯ (When the mean neurite-outgrowth rate was 25 to 44%, it was judged to be equivalent to the positive control NK-4 (“circle”))

SMILES: CC1=NN(c2ccccc2)C(=O)/C1=C\c1ccc(N(C)C)cc1 [NK-1107]
- Action on PC12-HS growth acceleration (50 ng/ml) [1]: ◯ (the relative value of 130% to 169% was judged to be equivalent to NK-4 (“circle”))

SMILES: CCN1C(=Cc2oc3ccccc3[n+]2CC)Sc2ccccc21.[I-] [NK-1049]
- Action on PC12-HS neurite-outgrowth promotion (500 ng/ml) [2]: ◯ (When the mean neurite-outgrowth rate was 25 to 44%, it was judged to be equivalent to the positive control NK-4 (“circle”))

SMILES: CN1C(=CC2=[N+](C)c3ccccc3C2(C)C)Oc2ccccc21.[I-] [NK-1684]
- Action on PC12-HS neurite-outgrowth promotion (500 ng/ml) [2]: ◯ (When the mean neurite-outgrowth rate was 25 to 44%, it was judged to be equivalent to the positive control NK-4 (“circle”))

SMILES: CN1C(=CC2=[N+](C)c3ccccc3C2(C)C)Sc2ccccc21.[I-] [NK-1570]
- Action on PC12-HS neurite-outgrowth promotion (500 ng/ml) [2]: ◯ (When the mean neurite-outgrowth rate was 25 to 44%, it was judged to be equivalent to the positive control NK-4 (“circle”))

SMILES: CCN1C(=Cc2ccc3ccccc3[n+]2CC)C=Cc2ccccc21.[Br-] [NK-1046]
- Action on PC12-HS neurite-outgrowth promotion (500 ng/ml) [2]: ◯ (When the mean neurite-outgrowth rate was 25 to 44%, it was judged to be equivalent to the positive control NK-4 (“circle”))

SMILES: COC1C=CC=CC1=CC=CC1=[N+](C)c2ccc3ccccc3c2C1(C)C.Cc1ccc(S(=O)(=O)[O-])cc1 (stereo not drawn) [NK-10214]
- Cell proliferation rate (%) ([1]; 1.000 nM): 103.3%
- Cell proliferation rate (%) ([1]; 40 nM): 109.3%
- Cell proliferation rate (%) ([1]; 200 nM): 123.1%
- neurocyte growth acceleration activity (in words) [1]: slightly weaker activity than NK-6 and NK-36
- Neurite-outgrowth rate (%) ([2]; 1.000 nM): 48.8%
- Neurite-outgrowth rate (%) ([2]; 200 nM): 23.6%
- Action on PC12-HS neurite-outgrowth promotion (500 ng/ml) [2]: ⊚ (45% or more was judged to be more potent than NK-4 (“double circle”))
- neurite-outgrowth promoting activity (in words) [2]: stronger neurite-outgrowth promoting activity than NK-4

SMILES: CCN1C(=O)/C(=C\C=C\c2sc(=S)n(CC)c2O)SC1=S [NK-1451]
- Action on PC12-HS growth acceleration (50 ng/ml) [1]: ◯ (the relative value of 130% to 169% was judged to be equivalent to NK-4 (“circle”))

SMILES: O=S(=O)([O-])CCCN1CCSC1=CC=CC1=[N+](CCCS(=O)(=O)[O-])CCS1.[Na+] [NK-3134]
- Cell proliferation rate (%) ([1]; 1.000 nM): 122.8%
- Cell proliferation rate (%) ([1]; 40 nM): 103.9%
- Action on PC12-HS growth acceleration (50 ng/ml) [1]: ◯ (the relative value of 130% to 169% was judged to be equivalent to NK-4 (“circle”))
- Cell proliferation rate (%) ([1]; 200 nM): 119.6%
- neurocyte growth acceleration activity (in words) [1]: slightly weaker activity than NK-6 and NK-36
- Neurite-outgrowth rate (%) ([2]; 1.000 nM): 18.2%
- Neurite-outgrowth rate (%) ([2]; 200 nM): 29.4%
- neurite-outgrowth promoting activity (in words) [2]: almost equivalent neurite-outgrowth promoting rate to NK-4

SMILES: CCN1C(=CC=Cc2cc[n+](CC)c3ccccc23)Oc2ccccc21.[I-] [NK-741]
- Action on PC12-HS neurite-outgrowth promotion (500 ng/ml) [2]: ◯ (When the mean neurite-outgrowth rate was 25 to 44%, it was judged to be equivalent to the positive control NK-4 (“circle”))

SMILES: CCN1C(C)=CSC1=CC=Cc1scc(C)[n+]1CC.[I-] [NK-67]
- Action on PC12-HS neurite-outgrowth promotion (500 ng/ml) [2]: ◯ (When the mean neurite-outgrowth rate was 25 to 44%, it was judged to be equivalent to the positive control NK-4 (“circle”))

SMILES: O=C1/C(=C\c2ccccc2)SC(=S)N1c1ccccc1 [NK-1075]
- Action on PC12-HS growth acceleration (50 ng/ml) [1]: ◯ (the relative value of 130% to 169% was judged to be equivalent to NK-4 (“circle”))

SMILES: CC[n+]1ccccc1C=Cc1ccc(N(C)C)cc1.[I-] [NK-557]
- Action on PC12-HS neurite-outgrowth promotion (500 ng/ml) [2]: ◯ (When the mean neurite-outgrowth rate was 25 to 44%, it was judged to be equivalent to the positive control NK-4 (“circle”))

SMILES: CCN1C(=Cc2oc3ccccc3[n+]2CC)Oc2ccccc21.[I-] [NK-863]
- Action on PC12-HS neurite-outgrowth promotion (500 ng/ml) [2]: ◯ (When the mean neurite-outgrowth rate was 25 to 44%, it was judged to be equivalent to the positive control NK-4 (“circle”))

SMILES: CCN1C(=CC=Cc2sc3ccc4ccccc4c3[n+]2CC)Sc2ccc3ccccc3c21.[I-] [NK-382]
- Action on PC12-HS neurite-outgrowth promotion (500 ng/ml) [2]: ◯ (When the mean neurite-outgrowth rate was 25 to 44%, it was judged to be equivalent to the positive control NK-4 (“circle”))

SMILES: CCN1C(=Cc2cc[n+](CC)c3ccccc23)C=Cc2ccccc21.[I-] [NK-276]
- Action on PC12-HS neurite-outgrowth promotion (500 ng/ml) [2]: ◯ (When the mean neurite-outgrowth rate was 25 to 44%, it was judged to be equivalent to the positive control NK-4 (“circle”))

SMILES: CCN1C(=Cc2sc3ccccc3[n+]2CC)Sc2ccccc21.[Br-] [NK-1560]
- Action on PC12-HS neurite-outgrowth promotion (500 ng/ml) [2]: ◯ (When the mean neurite-outgrowth rate was 25 to 44%, it was judged to be equivalent to the positive control NK-4 (“circle”))

SMILES: CC1=NN(c2ccccc2)C(=O)/C1=C\c1ccccc1 [NK-1076]
- Action on PC12-HS growth acceleration (50 ng/ml) [1]: ◯ (the relative value of 130% to 169% was judged to be equivalent to NK-4 (“circle”))

SMILES: Cc1ccc2c(c1)SC(=Cc1sc3cc(C)ccc3[n+]1C)N2C.[I-] [NK-594]
- Action on PC12-HS neurite-outgrowth promotion (500 ng/ml) [2]: ◯ (When the mean neurite-outgrowth rate was 25 to 44%, it was judged to be equivalent to the positive control NK-4 (“circle”))

SMILES: O=C1/C(=C\C=C\c2sc3ccccc3c2O)Sc2ccccc21 [NK-1741]
- Action on PC12-HS growth acceleration (50 ng/ml) [1]: ◯ (the relative value of 130% to 169% was judged to be equivalent to NK-4 (“circle”))

SMILES: CCCCCCCN1C(C)=CSC1=Cc1scc(C)[n+]1CCCCCCC.[I-] [NK-266]
- Action on PC12-HS neurite-outgrowth promotion (500 ng/ml) [2]: ◯ (When the mean neurite-outgrowth rate was 25 to 44%, it was judged to be equivalent to the positive control NK-4 (“circle”))
